Patent US4405643A, “Treatment of acute pulmonary edema with arginine esters” (Italfarmaco S.p.A., priority 1979, dated 1983)
Structures can show the parent of a compound that is named as a salt.

Columns and labels:
[1] = Protection against pulmonary edema (adrenaline-induced acute edema of the lungs); assay type: in vivo, male albino rats of Wistar type; details: parenteral, 15 min before adrenaline
Description: The method of A. M. Rothschild and A. Castania (Arch. Pharmacol., 295, 177 (1976)), has been used to develop the acute edema in the lungs and substances of known therapeutic activity have been used for comparison purpose.
For the test, male albino rats of Wistar type of average weight 250-350 grams, have been used for the test. The rats were stabilized for a period of ten days at a temperature of 21°±1° C., under conditions of controlled diet and water "ad libitum". Prior to the test, the animals were divided into groups of ten for the purpose of achieving good randomization. Each dose was tried on three groups of animals. The animals were anesthetized with pentobarbital in a dose of 30 mg/kg at the beginning of the test. After the animals were in complete narcosis, the following substances were administered by the parenteral route:
1. to the animals as controls, physiological saline solution in the amount of 1 ml/kg,
2. to the animals in the test, a solution of the substance being tested in physiological saline solution in the amount of 1 ml/kg in the doses reported hereinbelow in the table.
After a period of 15 minutes, for the purpose of determining the protective activity of the substances, adrenaline was administered in the amount of 16 γ/kg by the endovenous route and in physiological saline solution, for the purpose of causing acute edema.
After five minutes, the animals were killed by removal of the head, the lungs were removed and the weight of the lungs were determined. The results of the test are reported in Table 1 hereinbelow, together with the concentration of the substances and the relative inhibition of edema in percent.

[2] = Protection against shock caused by endotoxins (lipopolysaccharide B from S. Enteritidis); assay type: in vivo, male rats of Wistar type; details: parenteral, 1 h before endotoxin, after 24 h
Description: Endotoxin-induced shock has been produced according to the method reported by A. Bertelli and L. Donati, in the publication "The Influence of Some Enzymes and Enzymes Inhibitors in Shock", published in "SHOCK Biochemical,Pharmaceutical and Clinical Aspects"; A. Bertelli and N. Back Editors, Advances in Experimental Medicine and Biology; Volume 9, Plenum Press New York - London 1970, page 215. By way of comparison, there has been used a substance of well known therapeutical activity, specifically aprotinine, the commercial products marketed by Farbenfabriken Bayer, under the name "Trasylol". Male rats of Wistar type of 120 grams by weight ±10 have been used. The rats were previously stabilized for a period of ten days at a temperature of 21°±1° C. under a controlled diet and water "ad libitum". Twenty-four hours prior to the test, the animals were divided in groups of ten for the purpose of achieving randomization. Every single dose has been tried on six groups of animals.
Lipopolysaccharide B from S. Enteritidis (Difco Labs.) was used as the endotoxin. This substance was administered in the dose of 10 mg/kg by the endoperitoneal route, one hour after administration of the substance being administered by the parenteral route or in the form of a physiological solution in equal volume per kilogram to the animals being used as control.
The mortality in percent was determined in the animals being tested as compared with the controls after twenty-four hours.

[3] = test system: Fibrin Degradation Products; assay: Inhibition of hyperfibrinolysis caused by urokinase (F.D.P., staphylococcal clumping test); assay type: in vivo, Wistar rats; details: parenteral, 30 min before urokinase 2500 U.I/rat
Description: The induction of hyperfibrinolysis state is caused by administration of urokinase. The determination of the inhibition is carried out by determination of the F.D.P. value, that is Fibrin Degradation Products, according to the procedure of J. Hawiger et al, J. Lab. Clin. Med. 75, 93 (1970), by means of the staphylococcal clumping test (Boehringer Mannheim GmbH test).
There are used Wistar rats of 300 grams ±10 by weight previously stabilized for a period of ten days at a temperature of 21°±1° C., under conditions of controlled diet and water "ad libitum". Twenty-four hours prior to the beginning of the experiment, the animals are divided in groups of ten for the purpose of achieving randomization. Each individual dose is tried on three groups of animals.
At the beginning of the test, zero time, the compounds being tested are administered through the parenteral route. In the case of the control animals, at the same time an equal volume of a physiological saline solution is administered except that some blood is removed by means of a cardiac puncture, for the purpose of determining the basal fibrinolytic activity. After 30 minutes, human urokinase (the composition marketed by Ukidan-Serono) is administered intravenously in the amount of 2500 U.I/rat. After an additional period of ten minutes, blood is removed by means of a cardiac puncture for the final determination of F.D.P., a determination which is expressed in […].

[4] = Protection against anaphylactic shock (horse serum); assay type: in vivo, male albino guinea pigs; details: parenteral, with horse serum challenge, after 12 h
Description: The anaphylactic shock has been induced according to the method of S. M. Feinberg, M. Pharmacol. Exp. Therapeut., 99, 195 (1950). There have been used male albino guinea pigs of average weight, 350±20 grams previously stabilized for a period of ten days at a temperature of 21°±1° C., under conditions of controlled diet and water "ad libitum". Three days before the beginning of the experiment, the animals are divided in groups of ten for the purpose of achieving good randomization. Each single dose has been tried on three groups of animals.
The sensitization has been carried out by administration of 1 ml/guinea pig through the endovenous route of horse serum, (whole serum, not treated with preservatives) diluted 1:10 in physiological saline solution. After 14 days, the solutions of the substances being tested and the samples of physiological solutions for use with the controls are administered through the parenteral route. Simultaneously, 1 ml/guinea pig of horse serum, undiluted is administered, this substance being used as the agent which prompts the anaphylaxis. The percentage of mortality is determined after 12 hours.

Compound	% INHIBITION OF EDEMA ([1]; dose 1 mg/kg) [%]	% INHIBITION OF EDEMA ([1]; dose 2.5 mg/kg) [%]	% INHIBITION OF EDEMA ([1]; dose 5 mg/kg) [%]	% INHIBITION OF EDEMA ([1]; dose 10 mg/kg) [%]	% INHIBITION OF EDEMA ([1]; dose 20 mg/kg) [%]	% MORTALITY ([2]; dose 5 mg/kg) [%]	% MORTALITY ([2]; dose 10 mg/kg) [%]	% MORTALITY ([2]; dose 20 mg/kg) [%]	% MORTALITY ([2]; dose 50 mg/kg) [%]	F.D.P. ([3]; dose 5 mg/kg) [milliliters]	F.D.P. ([3]; dose 10 mg/kg) [milliliters]	F.D.P. ([3]; dose 20 mg/kg) [milliliters]	% MORTALITY ([4]; dose 10 mg/kg) [%]	% MORTALITY ([4]; dose 20 mg/kg) [%]	% MORTALITY ([4]; dose 50 mg/kg) [%]
COC(=O)[C@@H](N)CCCNC(=N)N [L-A.M., LArginine methyl ester hydrochloride]	21.2	27.4	29.0	55.7	15.7	55.0	50.0	40.0	28.0	0.48	0.30	0.25	40.5	27	12.5
N=C(N)NCCC[C@H](N)C(=O)O [L-Arginine.2HCl]	7	9	11	10.1	13.1	69	73	71	78	3.28	2.96	3.15	78.5	76.3	80
